# Test results from patent US8759295B2, “Peptide-peptidase inhibitor conjugates and methods of using same” (Amylin Pharmaceuticals, LLC, priority 2006, dated 2014).
# Starred links: 1 amine or outer side, 2 acyl side, 3 side chain; linkers in the order of their positions; H or OH if unused. Non-standard residues stand in square brackets, D forms with d. No end group written: not given here. *: point of attachment. Pyrrolidine(2S-CN) = N#C[C@@H]1CCCN1*; εLys = N[C@@H](CCCCN[*:1])C(=O)[*:2]; pGlu = O=C1CC[C@@H](C(=O)O)N1; AEEA = NCCOCCOCC(=O)O; βAla = NCCC(=O)O
# Assays:
# [1] = target: T1, human GIP receptor (HEK-GIPR membranes) (Homo sapiens, UniProt P48546); assay: GIP receptor binding displacement assay (RBA); conditions: 10 nM conjugate, 30 pM 125I-GIP; for inhibition at 0.01 µM: read-out: GIP RBA % inhibition at 10 nM
# T1 construct: expressed in transfected cells
# T1 sequence (P48546 22-466): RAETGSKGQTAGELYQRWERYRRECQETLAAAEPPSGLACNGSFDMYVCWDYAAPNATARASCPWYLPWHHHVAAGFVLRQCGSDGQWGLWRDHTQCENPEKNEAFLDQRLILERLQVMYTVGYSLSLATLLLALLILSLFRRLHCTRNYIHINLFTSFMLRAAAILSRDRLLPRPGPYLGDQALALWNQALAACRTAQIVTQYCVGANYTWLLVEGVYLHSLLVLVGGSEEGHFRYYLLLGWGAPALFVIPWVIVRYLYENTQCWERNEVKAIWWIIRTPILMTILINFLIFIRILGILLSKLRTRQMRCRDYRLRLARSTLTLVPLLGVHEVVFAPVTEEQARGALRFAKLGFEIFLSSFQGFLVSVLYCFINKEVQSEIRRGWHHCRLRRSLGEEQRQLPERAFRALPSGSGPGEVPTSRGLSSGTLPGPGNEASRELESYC
# Experimental: Membrane fractions were prepared from confluent cell cultures of HEK-GIPR, snap frozen, and stored at −80° C. until use. […] Reactions were allowed to proceed to equilibrium for 90 minutes at room temperature with constant shaking. The reaction mixtures were then filtered through 96-well glass fiber filter plates separating bound and unbound fractions of radioligand.
# Recombinant DPP-IV = Recombinant DPP-IV (Homo sapiens, UniProt P27487); assay: DPP-IV inhibition assay with chromogenic substrate; assay type: biochemical; set-up: purchased Chemicon International, Inc., Temecula, Calif; conditions: mean SEM of at least three determinations
# Chain of Recombinant DPP-IV (P27487 whole entry, species assumed): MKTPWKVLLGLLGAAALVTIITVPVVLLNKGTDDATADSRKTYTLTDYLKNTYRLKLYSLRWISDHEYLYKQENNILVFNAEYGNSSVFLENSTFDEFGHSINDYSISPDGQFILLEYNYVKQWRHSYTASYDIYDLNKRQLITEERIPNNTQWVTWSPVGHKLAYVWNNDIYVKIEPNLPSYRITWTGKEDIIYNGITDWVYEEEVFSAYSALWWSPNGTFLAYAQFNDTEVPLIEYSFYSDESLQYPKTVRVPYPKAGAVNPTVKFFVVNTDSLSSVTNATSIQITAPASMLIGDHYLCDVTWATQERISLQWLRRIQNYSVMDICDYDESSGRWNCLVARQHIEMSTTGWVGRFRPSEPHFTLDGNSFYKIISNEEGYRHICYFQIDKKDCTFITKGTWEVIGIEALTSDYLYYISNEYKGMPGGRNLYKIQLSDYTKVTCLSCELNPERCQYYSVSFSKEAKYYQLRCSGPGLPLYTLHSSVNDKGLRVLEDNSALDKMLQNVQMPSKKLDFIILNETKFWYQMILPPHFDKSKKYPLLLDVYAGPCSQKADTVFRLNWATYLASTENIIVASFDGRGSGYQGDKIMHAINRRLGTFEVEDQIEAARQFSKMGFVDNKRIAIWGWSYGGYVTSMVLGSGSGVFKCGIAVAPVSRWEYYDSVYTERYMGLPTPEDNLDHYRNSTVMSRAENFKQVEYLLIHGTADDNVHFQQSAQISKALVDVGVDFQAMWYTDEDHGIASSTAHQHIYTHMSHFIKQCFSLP
# Experimental: The reactions were initiated by adding 1 μl DPP-IV enzyme (0.05 mU) into each well and the absorbance at 410 nm was measured with 20-sec intervals over a 30-min period using a SpectraMax plate reader (Molecular Devices, Corp., Sunnyvale, Calif.). The velocities of each reaction at different inhibitor concentrations were calculated and the reciprocal velocities were plotted against inhibitor concentrations in Dixon graphs. The IC50 values of reaction velocities were calculated through fitting the plots with linear equation.
# The IC50 (nM) values in Table 5 are expressed as the mean SEM of at least three independent determinations.
# NIH/Swiss mice = assay: Oral glucose tolerance test (OGTT), glucose lowering; conditions: 30 nM/kg
molecule,measurement,setting,value
CC[C@H](C)[C@H](NC(=O)[C@H](CO)NC(=O)[C@H](Cc1ccc(O)cc1)NC(=O)[C@H](CC(=O)O)NC(=O)[C@H](CO)NC(=O)[C@@H](NC(=O)[C@H](Cc1ccccc1)NC(=O)[C@@H](NC(=O)CNC(=O)[C@H](CCC(=O)O)NC(=O)[C@H](C)NC(=O)[C@H](Cc1ccc(O)cc1)NC(=O)COCCOCCNC(=O)COCCOCCNC(=O)CC[C@H](N)C(=O)N1CCC[C@H]1C#N)[C@@H](C)O)[C@@H](C)CC)C(=O)N[C@@H](C)C(=O)N[C@@H](CCSC)C(=O)N[C@@H](CC(=O)O)C(=O)N[C@@H](CCCCN)C(=O)N[C@H](C(=O)N[C@@H](Cc1c[nH]cn1)C(=O)N[C@@H](CCC(N)=O)C(=O)N[C@@H](CCC(N)=O)C(=O)N[C@@H](CC(=O)O)C(=O)N[C@@H](Cc1ccccc1)C(=O)N[C@H](C(=O)N[C@@H](CC(N)=O)C(=O)N[C@@H](Cc1c[nH]c2ccccc12)C(=O)N[C@@H](CC(C)C)C(=O)N[C@@H](CC(C)C)C(=O)N[C@@H](C)C(=O)N[C@@H](CCC(N)=O)C(=O)N[C@@H](CCCCN)C(=O)O)C(C)C)[C@@H](C)CC [N-(γ-L-Glu-2-(S)-cyanopyrrolidyl)-Ado-Ado) GIP(1-30)],inhibition at 0.01 µM,[1],32%
same,IC50,Recombinant DPP-IV,64 ± 8 nM
CC[C@H](C)[C@H](NC(=O)[C@H](CO)NC(=O)[C@H](Cc1ccc(O)cc1)NC(=O)[C@H](CC(=O)O)NC(=O)[C@H](CO)NC(=O)[C@@H](NC(=O)[C@H](Cc1ccccc1)NC(=O)[C@@H](NC(=O)CNC(=O)[C@H](CCC(=O)O)NC(=O)[C@H](C)NC(=O)[C@@H](N)Cc1ccc(O)cc1)[C@@H](C)O)[C@@H](C)CC)C(=O)N[C@@H](C)C(=O)N[C@@H](CCSC)C(=O)N[C@@H](CC(=O)O)C(=O)N[C@@H](CCCCN)C(=O)N[C@H](C(=O)N[C@@H](Cc1c[nH]cn1)C(=O)N[C@@H](CCC(N)=O)C(=O)N[C@@H](CCC(N)=O)C(=O)N[C@@H](CC(=O)O)C(=O)N[C@@H](Cc1ccccc1)C(=O)N[C@H](C(=O)N[C@@H](CC(N)=O)C(=O)N[C@@H](Cc1c[nH]c2ccccc12)C(=O)N[C@@H](CC(C)C)C(=O)N[C@@H](CC(C)C)C(=O)N[C@@H](C)C(=O)N[C@@H](CCC(N)=O)C(=O)N[C@@H](CCCCN)C(=O)NCCOCCOCC(=O)NCCOCCOCC(=O)NCCCC[C@H](N)C(=O)N1CCC[C@H]1C#N)C(C)C)[C@@H](C)CC [GIP(1-30)-Ado-Ado-Lys-N-ε-(2-(S)-cyano pyrrolidyl)],inhibition at 0.01 µM,[1],97%
same,OGTT % maximal decrease,NIH/Swiss mice,−17%
"[D-Ala^2, Leu^14]GIP-(1-30)-β-Ala-β-Ala-Lys(α-NH-Pyroglutamoyl)-Trp-Ala-Pro-COOH (peptide 1 Y[dA]EGTFISDYSIALDKIHQQDFVNWLLAQK[βAla][βAla]; peptide 2 [pGlu]KWAP-OH; not fully specified (some residues); printed as [D-Ala^2, Leu^14]GIP-(1-30)-β-Ala-β-Ala-Lys(α-NH-Pyroglutamoyl)-Trp-Ala-Pro-COOH; numbers in words are those of the source; also: linker at chain B 1 to a chain's C-terminus via βAla-βAla)",GIP RBA % inhibition at 10 nM,[1],66%
same,OGTT % maximal decrease,NIH/Swiss mice,−12^ %
CC[C@H](C)[C@H](NC(=O)[C@H](CO)NC(=O)[C@H](Cc1ccc(O)cc1)NC(=O)[C@H](CC(=O)O)NC(=O)[C@H](CO)NC(=O)[C@@H](NC(=O)[C@H](Cc1ccccc1)NC(=O)[C@@H](NC(=O)CNC(=O)[C@H](CCC(=O)O)NC(=O)[C@H](C)NC(=O)[C@H](Cc1ccc(O)cc1)NC(=O)COCCOCCNC(=O)COCCOCCNC(=O)CC[C@H](N)C(=O)N1CCC[C@H]1C#N)[C@@H](C)O)[C@@H](C)CC)C(=O)N[C@@H](C)C(=O)N[C@@H](CCSC)C(=O)N[C@@H](CC(=O)O)C(=O)N[C@@H](CCCCN)C(=O)N[C@H](C(=O)N[C@@H](Cc1c[nH]cn1)C(=O)N[C@@H](CCC(N)=O)C(=O)N[C@@H](CCC(N)=O)C(=O)N[C@@H](CC(=O)O)C(=O)N[C@@H](Cc1ccccc1)C(=O)N[C@H](C(=O)N[C@@H](CC(N)=O)C(=O)N[C@@H](Cc1c[nH]c2ccccc12)C(=O)N[C@@H](CC(C)C)C(=O)N[C@@H](CC(C)C)C(=O)N[C@@H](C)C(=O)N[C@@H](CCC(N)=O)C(=O)N[C@@H](CCCCN)C(=O)N1CCC[C@H]1C(=O)N[C@@H](CO)C(=O)N[C@@H](CO)C(=O)NCC(=O)N[C@@H](C)C(=O)N1CCC[C@H]1C(=O)N1CCC[C@H]1C(=O)N1CCC[C@H]1C(=O)N[C@@H](CO)C(=O)O)C(C)C)[C@@H](C)CC [N-(γ-L-Glu-2-(S)-cyanopyrrolidyl)-Ado-Ado) GIP(1-30)-exendin-4(31-39)],IC50,Recombinant DPP-IV,110 ± 2 nM
Lys^16 (N-ε-(Aun-Aun-(γ-L-Glu-2-(S)-cyano pyrrolidyl))) GIP(1-30)-exendin(31-39),OGTT % maximal decrease,NIH/Swiss mice,−3%
CC[C@H](C)[C@H](NC(=O)[C@H](CO)NC(=O)[C@H](Cc1ccc(O)cc1)NC(=O)[C@H](CC(=O)O)NC(=O)[C@H](CO)NC(=O)[C@@H](NC(=O)[C@H](Cc1ccccc1)NC(=O)[C@@H](NC(=O)CNC(=O)[C@H](CCC(=O)O)NC(=O)[C@H](C)NC(=O)[C@@H](N)Cc1ccc(O)cc1)[C@@H](C)O)[C@@H](C)CC)C(=O)N[C@@H](C)C(=O)N[C@@H](CCSC)C(=O)N[C@@H](CC(=O)O)C(=O)N[C@@H](CCCCN)C(=O)N[C@H](C(=O)N[C@@H](Cc1c[nH]cn1)C(=O)N[C@@H](CCC(N)=O)C(=O)N[C@@H](CCC(N)=O)C(=O)N[C@@H](CC(=O)O)C(=O)N[C@@H](Cc1ccccc1)C(=O)N[C@H](C(=O)N[C@@H](CC(N)=O)C(=O)N[C@@H](Cc1c[nH]c2ccccc12)C(=O)N[C@@H](CC(C)C)C(=O)N[C@@H](CC(C)C)C(=O)N[C@@H](C)C(=O)N[C@@H](CCC(N)=O)C(=O)N[C@@H](CCCCN)C(=O)N1CCC[C@H]1C(=O)N[C@@H](CO)C(=O)N[C@@H](CO)C(=O)NCC(=O)N[C@@H](C)C(=O)N1CCC[C@H]1C(=O)N1CCC[C@H]1C(=O)N1CCC[C@H]1C(=O)N[C@@H](CO)C(=O)NCCOCCOCC(=O)NCCOCCOCC(=O)NCCCC[C@H](N)C(=O)N1CCC[C@H]1C#N)C(C)C)[C@@H](C)CC [GIP(1-30)-exendin-4(31-39)-Ado-Ado-Lys-N-ε-(2-(S)-cyano pyrrolidyl)],OGTT % maximal decrease,NIH/Swiss mice,−22%
CC[C@H](C)[C@H](NC(=O)[C@H](CO)NC(=O)[C@H](Cc1ccc(O)cc1)NC(=O)[C@H](CC(=O)O)NC(=O)[C@H](CO)NC(=O)[C@@H](NC(=O)[C@H](Cc1ccccc1)NC(=O)[C@@H](NC(=O)CNC(=O)[C@H](CCC(=O)O)NC(=O)[C@@H](C)NC(=O)[C@@H](N)Cc1ccc(O)cc1)[C@@H](C)O)[C@@H](C)CC)C(=O)N[C@@H](C)C(=O)N[C@@H](CCSC)C(=O)N[C@@H](CC(=O)O)C(=O)N[C@@H](CCCCN)C(=O)N[C@H](C(=O)N[C@@H](Cc1c[nH]cn1)C(=O)N[C@@H](CCC(N)=O)C(=O)N[C@@H](CCC(N)=O)C(=O)N[C@@H](CC(=O)O)C(=O)N[C@@H](Cc1ccccc1)C(=O)N[C@H](C(=O)N[C@@H](CC(N)=O)C(=O)N[C@@H](Cc1c[nH]c2ccccc12)C(=O)N[C@@H](CC(C)C)C(=O)N[C@@H](CC(C)C)C(=O)N[C@@H](C)C(=O)N[C@@H](CCC(N)=O)C(=O)N[C@@H](CCCCN)C(=O)N1CCC[C@H]1C(=O)N[C@@H](CO)C(=O)N[C@@H](CO)C(=O)NCC(=O)N[C@@H](C)C(=O)N1CCC[C@H]1C(=O)N1CCC[C@H]1C(=O)N1CCC[C@H]1C(=O)N[C@@H](CO)C(=O)NCCOCCOCC(=O)NCCCC[C@H](N)C(=O)N1CCC[C@H]1C#N)C(C)C)[C@@H](C)CC [[D-Ala]GIP(1-30)-exendin-4(31-39)-Ado-Lys-N-ε-(2-(S)-cyano pyrrolidyl)],OGTT % maximal decrease,NIH/Swiss mice,−20%
H-YAEGTFISDYSIALDKIHQQDFVNWLLAQKPSSGAPPPS[AEEA][εLys]-{Pyrrolidine(2S-CN)} [[Leu^14]GIP(1-30)-exendin-4(31-39)-Ado-Lys-N-ε-(2-(S)-cyano pyrrolidyl)],IC50,Recombinant DPP-IV,82 ± 2 nM
